Here are results for 2 compounds from paper PMC10953480 (RSC Medicinal Chemistry, 2024).

One data set has as its system Cos-7 cells. Briefly: Cytotoxicity to Cos-7 cells. The class given is cell-based, African green monkey (Cercopithecus aethiops).
In a further data set the test system is CaV2.2. The conditions noted are these: read-out: CaV2.2 IC50; whole-cell patch clamp; cited from earlier work.

Structures are written as SMILES.

As for `CN(C)CCCOc1ccc(C(=O)Nc2ccccc2Oc2ccccc2)cc1` [7b], in the data set on Cos-7 cells, the “concentration up to which well tolerated by Cos-7 cells” value is not above 100 µM.

Turning to `NC(N)=NCCCOc1ccc(C(=O)Nc2ccccc2Oc2ccc(F)cc2)cc1` [MONIRO-1 6a], the IC50 (in general, the concentration that gives 50% inhibition) with CaV2.2 was 34 µM.
